Measured values: patent US6333338A, “Bispiperidines as antithrombotic agents” (Laboratoire L. Lafon, priority 1998, dated 2001)
Counter-ions that a name gives are not always drawn. Like-named read-outs stand apart in the source and are kept apart here.

Tests used:
guinea pig platelets [1] = assay: In vitro inhibition of collagen-induced platelet aggregation, guinea pig platelets (PRP); format: cell-based, guinea pig (male Dunkin-Hartley); settings: Cavia porcellus, Platelet, 0.05 h, collagen 1 μg/ml, 3 minutes of contact at 37° C.
Procedure: (§1) A study of the inhibitory activity of the compounds of formula I on platelet aggregation was carried out in vitro, i.e. by direct contact of solutions of variable concentrations of the compounds with platelets freshly separated from a sample of total blood, taken under standardized conditions, from laboratory animals (guinea pigs) and from healthy human subjects who have not received any substances or drugs that might interfere with blood clotting. The anti-platelet-aggregating activity was also studied ex vivo/vitro, i.e. after administration of the substances claimed to guinea pigs to measure the intensity and duration of the anti-aggregating action induced by the fraction of the test product absorbed and circulating in the blood.
Blood is taken by intracardiac puncture from male Dunkin-Hartley guinea pigs (weighing about 330 g), at a rate of 4.5 ml per 0.5 ml of trisodium citrate (concentration of the aqueous solution: 1.55%) in order to prevent all trace of clotting. The platelet-rich plasma (PRP) is obtained by centrifuging the tubes of total blood for 15 minutes at 150 g.
The PRPs are collected as "pools". The platelets contained in these pools are counted using a Coulter ZM haematology automatic device: if necessary, a dilution is carried out in order for the platelet concentration in the plasma to be between 200,000 and 400,000 platelets/mm^3. Simultaneously, other samples of these pools serve to prepare the platelet-poor plasma (PPP) by centrifugation at 1500 g for 15 minutes.
The kinetic study of the platelet aggregation is carried out by adding a collagen solution (1 μg/ml) to a volume of PRP, using a Chrono-log Corporation aggregometer (490-D1 or 560 VS) which uses an optical detection of the appearance of the thrombus.
The measurements of the aggregation inhibition are carried out after 3 minutes of contact at 37° C. with agitation.

human platelets = assay: In vitro inhibition of collagen-induced platelet aggregation, human platelets (PRP); format: cell-based; settings: 0.05 h, collagen 5 μg/ml, 3 minutes of contact at 37° C., read-out: IC50 (M) in vitro, Man
Procedure: as §1
Venous blood is taken from a group of ten healthy human subjects of the same age, by puncture into a vein of the fold of the elbow and is collected in a glass tube containing aqueous 0.129 M sodium citrate solution (1 volume of citrate solution per 9 volumes of blood). Each tube is then centrifuged a first time at 20° C. and 100 g for 15 minutes in order to obtain the platelet-rich plasma (PRP); after removing this PRP, the tube is again centrifuged at 2000 g for 15 minutes in order this time to remove the platelet-poor plasma (PPP).
For each identified sample of PRP, the platelets are counted using a Coulter ZM counter. Each sample is then used to study the variation in inhibition of the platelet aggregation triggered by the addition of a Chromo-par Reagent collagen glucose solution from Coultronics (used at a concentration of 5 μg/ml) as a function of the addition of increasing concentrations of each compound in a range covering the interval 10^-8 M→10^-5 M, (example of concentrations: 10^-8 M, […], 6×10^-6 M, 4×10^-6 M, 2×10^-6 M, 10^-6 M, […], 10^-5 M). Beforehand, for each compound, an aqueous 10^-3 M solution is prepared. A control test intended to check the possible effect of the solvents (reference value) on the platelet aggregation is introduced into each measurement series, and is measured after 3 minutes of contact at 37° C. with agitation.
From the percentages of inhibition of the platelet aggregation measured for each concentration of each compound, the 50% inhibitory concentration (IC50) is calculated.

guinea pig platelets [2] = assay: Ex vivo/vitro inhibition of platelet aggregation after administration via the gastric route in guinea pigs; parameters: species or system guinea pig (Dunkin-Hartley); settings: Cavia porcellus, Platelet, fasted guinea pigs
Procedure: as §1, with “blood. Evaluation of the anti-platelet-aggregating activity of the compounds is carried out in the same guinea pigs as those mentioned above (Dunkin-Hartley strain). […] The allocation of the treatments to the animals is random. The blood is taken and then treated under the same conditions as those described above for the in vitro studies. The results of the inhibition of the platelet aggregation obtained for each test concentration make it possible to calculate the IC50 concentration of each test product and the kinetics of the inhibitory effect and its duration of action.” for “blood.”

[3] = 1 h before blood sampling, read-out: % of g.r. inhibition guinea pig ex vivo, d = 10 mg/kg, 1 h
[4] = 2 h before blood sampling, read-out: % of g.r. inhibition guinea pig ex vivo, d = 10 mg/kg, 2 h
[5] = 1 h before blood sampling, read-out: % of g.r. inhibition guinea pig ex vivo, d = 150 mg/kg, 1 h
[6] = 2 h before blood sampling, read-out: % of g.r. inhibition guinea pig ex vivo, d = 150 mg/kg, 2 h

SMILES	IC50 (guinea pig platelets [1])	IC50 (human platelets)	inhibition at 10 mg/kg (guinea pig platelets [2]; [3])	inhibition at 10 mg/kg (guinea pig platelets [2]; [4])	inhibition at 150 mg/kg (guinea pig platelets [2]; [5])	inhibition at 150 mg/kg (guinea pig platelets [2]; [6])
O=C(CNC(=O)C(CCC1CCNCC1)CCC1CCNCC1)NCC(NS(=O)(=O)c1ccc(-c2ccccc2)s1)C(=O)O (stereo not shown) [Example 71, 2-{[(5-Phenyl-2-thienyl))sulphonyl]amino}-3-{[2-({4-(4-piperidyl)-2-[2-(4-piperidyl)ethyl]butanoyl}amino)acetyl]amino}propanoic Acid Dihydrochloride]	63 nM	1.9e-07 M	-72%	-70%	–	–
CC(C)c1ccc(C(CC(=O)O)NC(=O)CNC(=O)C(CCC2CCNCC2)CCC2CCNCC2)cc1 (stereo not shown) [Example 6, 3-(4-Isopropylphenyl)-3-{[2-({4-(4-piperidyl)-2-[2-(4-piperidyl)ethyl]butanoyl}amino)acetyl]amino}propanoic Acid Dihydrochloride]	14000 nM	2.7e-06 M	–	–	-9%	-4%
O=C(CNC(=O)C(CCC1CCNCC1)CCC1CCNCC1)NCC(NS(=O)(=O)c1ccc(Cl)cc1)C(=O)O (stereo not shown) [Example 34, 2-([(4-Chlorophenyl)sulphonyl]amino)-3-{[2-({4-(4-piperidyl)-2-[2-(4-piperidyl)ethyl]butanoyl}amino)acetyl]amino}propanoic Acid Dihydrochloride]	500 nM	8.9e-07 M	-19%	-8%	–	–
COc1cc2ccc(S(=O)(=O)N[C@@H](CNC(=O)CNC(=O)C(CCC3CCNCC3)CCC3CCNCC3)C(=O)O)cc2cc1OC [Example 53, 2-{[(6,7-Dimethoxy-2-naphthyl)sulphonyl]amino}-3-{[2-({4-(4-piperidyl)-2-[2-(4-piperidyl)ethyl]butanoyl}amino)acetyl]amino}propanoic Acid Dihydrochloride]	37 nM	7.3e-08 M	-73%	-9%	–	–
O=C(CCNC(=O)C(CCC1CCNCC1)CCC1CCNCC1)NCC(NS(=O)(=O)c1ccc2ccccc2c1)C(=O)O (stereo not shown) [Example 78, 2-[(2-Naphthylsulphonyl)amino]-3-{[3-({4-(4-piperidyl)-2-[2-(4-piperidyl)ethyl]butanoyl}amino)propanoyl]amino}propanoic Acid Dihydrochloride]	46 nM	1e-07 M	-65%	-73%	–	–
O=C(CNC(=O)C(CCC1CCNCC1)CCC1CCNCC1)NCC(NS(=O)(=O)c1ccc(Cl)c2ccccc12)C(=O)O (stereo not shown) [Example 63, 2-{[(4-Chloro-1-naphthyl)sulphonyl]amino}-3-{[2-({4-(4-piperidyl)-2-[2-(4-piperidyl)ethyl]butanoyl}amino)acetyl]amino}propanoic Acid Dihydrochloride]	53 nM	1e-06 M	-69%	-50%	–	–
O=C(O)CC(NC(=O)CNC(=O)C(CCC1CCNCC1)CCC1CCNCC1)c1ccc2c(c1)OCO2 (stereo not shown) [Example 5, 3-(1,3-Benzodioxol-5-yl)-3-{[2-({4-(4-piperidyl)-2-[2-(4-piperidyl)ethyl]butanoyl}amino)acetyl]amino}-propanoic Acid Dihydrochloride]	2000 nM	2.8e-07 M	-15%	–	-63%	-66%
COc1ccc(C(CC(=O)O)NC(=O)CNC(=O)C(CCC2CCNCC2)CCC2CCNCC2)cc1OC (stereo not shown) [Example 8, 3-(3,4-Dimethoxyphenyl)-3-{[2-({4-(4-piperidyl)-2-[2-(4-piperidyl)ethyl]butanoyl}amino)acetyl]amino}propanoic Acid Dihydrochloride]	35000 nM	1.6e-06 M	–	–	-10%	-31%
O=C(CNC(=O)C(CCC1CCNCC1)CCC1CCNCC1)NCC(NS(=O)(=O)c1ccccc1)C(=O)O (stereo not shown) [Example 26, 2-[(Phenylsulphonyl)amino]-3-{[2-({4-(4-piperidyl)-2-[2-(4-piperidyl)ethyl]butanoyl}amino)acetyl]amino}propanoic Acid Dihydrochloride]	440 nM	5.3e-07 M	-41%	-20%	-77%	-68%
O=C(CNC(=O)C(CCC1CCNCC1)CCC1CCNCC1)NCC(NS(=O)(=O)c1cccc2ccccc12)C(=O)O (stereo not shown) [Example 31, 2-[(1-Naphthylsulphonyl)amino]-3-{[2-({4-(4-piperidyl)-2-[2-(4-piperidyl)ethyl]butanoyl}amino)acetyl]amino}propanoic Acid Dihydrochloride]	44 nM	5.8e-07 M	-81%	-81%	–	–
COc1cccc(C(CC(=O)O)NC(=O)CNC(=O)C(CCC2CCNCC2)CCC2CCNCC2)c1 (stereo not shown) [Example 10, 3-(3-Methoxyphenyl)-3-{[2-({4-(4-piperidyl)-2-[2-(4-piperidyl)ethyl]butanoyl}amino)acetyl]amino}propanoic Acid Dihydrochloride]	13000 nM	9.2e-07 M	–	–	-14%	-18%
O=C(CNC(=O)C(CCC1CCNCC1)CCC1CCNCC1)NCC(NS(=O)(=O)c1cccs1)C(=O)O (stereo not shown) [Example 33, 2-[(2-Thienylsulphonyl)amino]-3-{[2-({4-(4-piperidyl)-2-[2-(4-piperidyl)ethyl]butanoyl}amino)acetyl]amino}propanoic Acid Dihydrochloride]	710 nM	4.9e-07 M	-14%	-5%	–	–
CN(C)c1cccc2c(S(=O)(=O)NC(CNC(=O)CNC(=O)C(CCC3CCNCC3)CCC3CCNCC3)C(=O)O)cccc12 (stereo not shown) [Example 49, 2-({[5-(Dimethylamino)-1-naphthyl)sulphonyl}amino)-3-{[2-({4-(4-piperidyl)-2-[2-(4-piperidyl)ethyl]butanoyl}amino)acetyl]amino}propanoic Acid Trihydrochloride]	49 nM	5.6e-08 M	-69%	-68%	–	–
O=C(O)C[C@H](NC(=O)CNC(=O)C(CCC1CCNCC1)CCC1CCNCC1)C(=O)NCCc1cccc2[nH]ccc12 [Example 17, (3S)-4-{[2-(1H-Indol-4-yl)ethyl]amino}-4-oxo-3-{[2-({4-(4-piperidyl)-2-[2-(4-piperidyl)ethyl]butanoyl}amino)acetyl]amino}butanoic Acid Dihydrochloride]	7400 nM	6e-06 M	–	–	-19%	–
